Patent US20220177511A1, “SERIES OF HALOGENATED TETRACYCLIC TRITERPENE DERIVATIVES AND THEIR PREPARATION AND APPLICATION” (SHANGHAI KING-X BIOTECH CO., LTD, priority 2019, published 2022)
Entries after “also recorded” stand apart in the source; their conditions may differ. Like-named read-outs stand apart in the source and are kept apart here.

Tests used:
[1] = Plasma pharmacokinetics after single intravenous injection in rats; assay type: in vivo; conditions: rat, intravenous 2 mg/kg, Mean ± SD; for concentration at 0.05 h: read-out: C0.05; for MRT inf: read-out: MRT0-∞; for Vd: read-out: Vz
Protocol: Strain: SD rat; Gender: half male and female. Weight: about 200-250 g. Source: Shanghai Slac Laboratory Animal Co., Ltd. Laboratory Animal Production License No.: SOCK (Shanghai) 2017-0005. Laboratory Animal Use License Certificate number: SYXK (Shanghai) 2014-0018. Breeding: constant temperature purification and ventilation animal room, 20-26° C., free food and water, humidity 40-70%, light for 12 h.
Route B: single intravenous injection. Volume: calculated according to 5 mL/kg body weight. Preparation: an appropriate amount of compound 2 is dissolved in 3% total volume of DMSO. 3% total volume of castor oil is added to the solution and mixed by vortexing, an appropriate amount of normal saline is added to form an intravenous drug solution (0.4 mg/mL clear solution).
12 SD rats were divided into 2 groups, 6 rats in each group, […]. Fasting for 12 h before administration, free drinking water. The doses of 10 mg/kg were administered as a single gavage, and the doses of 2 mg/kg were administered as a single intravenous injection. About 100 μL orbital blood was collected before administration, 3 min, 10 min, 20 min, 30 min, 1 h, 2 h, 3 h, 4 h, 6 h, 8 h, 11 h, and 24 h after administration. For intravenous administration, orbital blood was collected before administration, 3 min, 8 min, 15 min, 30 min, 1 h, 2 h, 3 h, 4 h, 6 h, 8 h, 11 h, 24 h after injection. The blood was anticoagulated with 1% heparin, centrifuged at 8000 rpm for 4 min, and the plasma was separated. Store at −20° C. High concentration samples were diluted with blank plasma. 2.1.4 Determination method of plasma samples 2.1.4.1 Instrument (LC-MS/MS)
Liquid chromatography system: Ultimate3000 liquid chromatography system (including Ultimate3000 ternary infusion pump, Ultimate3000 column oven, Ultimate3000 autosampler and Ultimate3000 vacuum degasser), Dionex Corporation. MS/MS system: 4000 Q-Trap tandem mass spectrometer with electrospray ionization source (ESI source), AB Company
Column: Athena C18-WP 100A (2.1×50 mm, 5 μm); Injection volume: 10 μL; Mobile phase: A: acetonitrile; C: 0.05% ammonia, gradient elution (see table below); Flow rate: 0.3 mL/min
The ion source is electrospray ionization source (ESI), the drying gas (N2) temperature is 500° C., the electrospray voltage is −4500 V, the detection method is negative ion detection, the scanning method is the […] (MRM) method and the scanning time is 0.15 s. The mass spectrometry parameters are as follows:
50 μL of rat whole blood was added with 2.5 μL of internal standard working solution (250 ng/mL tolbutamide). 150 μL of acetonitrile was used to precipitate the proteins. The sample was centrifuged at 13,000 rpm and 4° C. for 5 min. The upper organic phase was taken and filtered with a 0.22 μM microporous membrane, which was then analyzed by LC-MS/MS.

[2] = system: C57 mouse CHF model; experiment: In vivo efficacy on chronic heart failure in mice (coronary artery ligation, echocardiography), enalapril control; conditions: for Cardiac output per minute (CO), day 28 vs day 0: p<0.01 or p<0.05 (FIG. 6)
Protocol: C57 mouse coronary artery ligation method was used in this experiment to prepare the mouse CHF model. The differences in echocardiography, hemodynamics and histopathology of the model were observed after administration. Test substance: compound 2. Solvent: 0.3% sodium carboxymethyl cellulose. Dosage: 1 mg/kg, 3 mg/kg, 10 mg/kg, 30 mg/kg and 100 mg/kg. Route of administration: intragastric. Control drug: enalapril 2 mg/kg. Strain: C57 mouse; Age: 7 weeks; Weight: 18-20 g; Gender: Male; Grade: SPF C57 mouse CHF model was established by coronary artery ligation method in this experiment. The differences in echocardiography, hemodynamics and histopathology of the model were observed after administration. 5 dose groups were set for compound 2 in this experiment. Enalapril was selected as the positive control. Once daily for 28 consecutive days. The doses for each group was 1 mg/kg, 3 mg/kg, 10 mg/kg, 30 mg/kg and 100 mg/kg. Positive control group: Enalapril (2 mg/kg) was administered after CHF was established. The mice were anesthetized in a box filled with isoflurane. After the mice were anesthetized, the left 4th intercostal space was opened to expose the left atrial appendage and left ventricle. It can be seen that the left coronary artery runs downward from the middle of the left atrial appendage to the anterior wall of the left ventricle. The coronary artery is sutured at a high position about 1 mm from the lower border of the left atrial appendage. After ligation, the myocardium gradually changes from fleshy red to pale white, indicating myocardial infarction. The model is successfully established, and the chest is closed layer by layer. After the spontaneous breathing of the mice recovered, the mice were caged and reared in a day-night cycle with free access to water and food. After being reared for 30 days, the chronic heart failure model was detected by echocardiography, and the mice with successful chronic heart failure model were selected. Qualified CHF mice screened by echocardiography were randomly grouped. Mice were given compound 2 by intragastric administration once daily for 28 consecutive days. The body weight of mice was measured every week, and echocardiography was performed after 28 days of administration. After the […] anesthetized, 1 mm^3 tissue was taken from the hearts of 3 mice in each group, fixed with electron microscope fixative, and detected by transmission electron microscope to observe the ultrastructure of the heart. All remaining heart tissues were fixed with 10% formaldehyde, and stained with HE for histopathology to observe histopathological changes.

[3] = mice with heart failure, intragastric once daily 28 days, dose not stated

Structure (SMILES): CC(C)(O)[C@@H]1CC[C@](C)([C@H]2[C@@H](O)C[C@@]3(C)[C@@H]4C[C@H](O)[C@H]5C(C)(C)C(F)(F)CC[C@@]56C[C@@]46CC[C@]23C)O1 [Compound 2, (2aR,3R,4S,5aS,5bS,7S,7aR,11aR,12aS)-9,9-difluoro-3-((2R,5S)-5-(2-hydroxypropan-2-yl)-2-methyltetrahydrofuran-2-yl)-2a,5a,8,8-tetramethyltetradecahydro-1H,12H-cyclopenta[a]cyclopropa[e]phenanthrene-4,7-diol]
- AUC0-t ([1]; both sexes, all rats (♂ and ♀)): 1590 ± 585 ng·h/mL
- AUC(0-inf) ([1]; both sexes, all rats (♂ and ♀)): 1660 ± 656 ng·h/mL
- clearance ([1]; both sexes, all rats (♂ and ♀)): 23 mL/min/kg
- half-life ([1]; both sexes, all rats (♂ and ♀)): 1.18 ± 0.41 h
- concentration at 0.05 h ([1]; both sexes, all rats (♂ and ♀)): 1460 ± 232 ng/mL
- MRT inf ([1]; both sexes, all rats (♂ and ♀)): 1.55 ± 0.59 h
- Vd ([1]; both sexes, all rats (♂ and ♀)): 2.13 ± 0.38 L/kg
- AUC0-t ([1]; female, rats ♀): 2120 ± 114 ng·h/mL
- AUC(0-inf) ([1]; female, rats ♀): 2250 ± 206 ng·h/mL
- clearance ([1]; female, rats ♀): 14.9 mL/min/kg
- half-life ([1]; female, rats ♀): 1.47 h
- concentration at 0.05 h ([1]; female, rats ♀): 1390 ± 250 ng/mL
- MRT inf ([1]; female, rats ♀): 2.03 ± 0.41 h
- Vd ([1]; female, rats ♀): 1.86 ± 0.348 L/kg
- AUC0-t ([1]; male, rats ♂): 1060 ± 113 ng·h/mL
- AUC(0-inf) ([1]; male, rats ♂): 1080 ± 106 ng·h/mL
- clearance ([1]; male, rats ♂): 31 mL/min/kg
- half-life ([1]; male, rats ♂): 0.9 h
- concentration at 0.05 h ([1]; male, rats ♂): 1540 ± 233 ng/mL
- MRT inf ([1]; male, rats ♂): 1.07 ± 0.09 h
- Vd ([1]; male, rats ♂): 2.39 ± 0.168 L/kg
- Short axis shortening rate (FS %), day 28 vs day 0 ([2]; 10 mg/kg group, p<0.0005 (FIG. 7)): significant increase; also recorded: significant elevated
- EF value, day 28 vs day 0 ([2]; 10 mg/kg group, p<0.0005, highest increase p<0.0001 (FIG. 5)): significantly increased
- Cardiac output per minute (CO), day 28 vs day 0 ([2]; 10 mg/kg group): significantly increased
- EF value, day 28 vs day 0 ([2]; 30 mg/kg group, p<0.0005 (FIG. 5)): significantly increased
- Cardiac output per minute (CO), day 28 vs day 0 ([2]; 30 mg/kg group): significantly increased
- Cardiac output per minute (CO), day 28 vs day 0 ([2]; 100 mg/kg group): significantly increased
- CO per minute [2, 3]: significantly increased
- ejection fraction (EF) [2, 3]: significantly increased
- heart rate (HR) [2, 3]: without increasing
- short-axis shortening rate (FS) [2, 3]: significantly increased
